# Measurements published in patent US8450342B2, “Perharidines as CDK inhibitors” (Centre Nationale de la Recherche Scientifique, priority 2008, dated 2013).
# pIC50: −log10 of the molar value. Where two headings read alike, the source gives them in different places.
# Assays:
# CDK1/cyclin B = CDK1/cyclin B kinase assay; format: biochemical, starfish
# Method: (§1) Controls were performed with appropriate dilutions of dimethylsulfoxide.
# (§2) ATP (3,000 Ci/mmol; 10 mCi/ml) in a final volume of 30 μl. After 30 min. incubation at 30° C., 25 μl aliquots of supernatant were spotted onto 2.5×3 cm pieces of Whatman P81 phosphocellulose paper, and, 20 sec. later, the filters were washed five times (for at least 5 min. each time) in a solution of 10 ml phosphoric acid/liter of water. The wet filters were counted in the presence of 1 ml ACS (Amersham) scintillation fluid.
# CDK2/cyclin A = molecular target: T1, CDK2/cyclin A (Homo sapiens, UniProt P24941); assay: CDK2/cyclin A kinase assay; format: biochemical; settings: Table 5; read-out: CDK2/cyclin A
# T1 construct: made in house; host or cells: insect cells
# Method: (§3) Blank values were subtracted and activities expressed in % of the maximal activity, i.e. in the absence of inhibitors. Controls were performed with appropriate dilutions of dimethylsulfoxide.
# CDK2/cyclin A (human, recombinant, expressed in insect cells) was assayed as described for CDK1/cyclin B.
# CDK2/cyclin E = CDK2/cyclin E (Homo sapiens, UniProt P24941); assay: CDK2/cyclin E kinase assay; format: biochemical; settings: Table 5
# Method: as §1
# (§4) The compounds were tested at various concentrations in the kinase assays, as described in the Methods section.
# CDK5/p25 = molecular target: T2, CDK5/p25 (Homo sapiens, UniProt Q00535); assay: CDK5/p25 kinase assay; format: biochemical
# T2 construct: made in house
# Method: as §1, §2
# CDK7/cyclin H = CDK7/cyclin H (Homo sapiens, UniProt P50613); assay: CDK7/cyclin H kinase assay; format: biochemical; settings: Table 4
# Method: as §3, §4
# CDK9/cyclin T = molecular target: T3, CDK9/cyclin T (Homo sapiens, UniProt P50750); assay: CDK9/cyclin T kinase assay; format: biochemical; settings: Table 5; read-out: CDK9/cyclin T
# T3 construct: made in house; host or cells: insect cells
# Method: as §3
# CK1δ/ε = assay: CK1 kinase assay; format: biochemical, porcine; settings: read-out: CK1
# Method: as §3
# DYRK1A = DYRK1A (Homo sapiens, UniProt Q13627); assay: DYRK1A kinase assay; format: biochemical; settings: Table 5; read-out: DYRK1A
# Method: as §3, §4
# Erk2 = Erk2 (Homo sapiens, UniProt P28482); assay: Erk2 kinase assay; format: biochemical; settings: Table 5
# Method: as §3, §4
# GSK-3α/β = GSK-3α/β kinase assay; format: biochemical, porcine
# Method: as §3
# [1] = system: SH-SY5Y human neuroblastoma cells; assay: Cell survival (MTS assay), SH-SY5Y; format: cell-based; settings: read-out: SH-SY5Y cell survival
# Method: (§5) SH-SY5Y human neuroblastoma cells were grown in DMEM medium (Invitrogen, Cergy Pontoise, France). […] Human foreskin primary fibroblasts (kindly provided by Dr. Gilles Ponzio) were grown in DMEM supplemented with 2 mM L-glutamine and 20 mM HEPES. All the media were supplemented with antibiotics (penicillin-streptomycin) from Lonza and 10% volume of FCS from Invitrogen. Cells were cultured at 37° C. with 5% CO2. Drug treatments were performed on exponentially growing cultures at the indicated time and concentrations. Control experiments were carried out using appropriate dilutions of DMSO. MDCK cell-lines were used to test compounds PKD.
# [2] = system: HEK 293 human embryonic kidney cell line; assay: Cell survival (MTS assay), HEK293; format: cell-based
# Method: as §5
# LS 174T = assay: Cell survival, LS 174T; format: cell-based; settings: Homo sapiens, LS174T; Table 6
# Method: Cell viability was determined by measuring the reduction of 3-(4,5-dimethylthiazol-2-yl)-5-(3-carboxymethoxyphenyl)-2-(4-sulfophenyl)-2H-tetrazolium (MTS). Cell death was determined by measuring the level of lactate dehydrogenase activity (LDH) released upon cell lysis.
# HCT116 (Spheroids) = assay: Cell survival, HCT116 (Spheroids); format: cell-based; settings: Homo sapiens, HCT-116; Table 6
# B2-CLL lymphocytes = assay: Survival / cell death of B2-CLL lymphocytes from patients; format: cell-based, human
# Method: Cell viability was determined by measuring the reduction of 3-(4,5-dimethylthiazol-2-yl)-5-(3-carboxymethoxyphenyl)-2-(4-sulfophenyl)-2/H-tetrazolium (MTS). Cell death was determined by measuring the level of lactate dehydrogenase activity (LDH) released upon cell lysis.
# [3] = system: retinoblastoma protein phosphorylation; assay: Western blot, retinoblastoma protein phosphorylation on CDK2/CDK4 sites in SH-SY5Y; format: cell-based, human; settings: for total Rb: FIG. 8
# Method: as §5
# (§6) Cells were resuspended and lysed for 30 minutes at 4° C. in Homogenization Buffer [60 mM β-glycerophosphate, 15 mM p-nitrophenyl phosphate, 25 mM MOPS (pH 7.2), 15 mM EGTA, 15 mM MgCl2, 1 mM dithiothreitol, 1 mM sodium vanadate, 1 mM NaF, 1 mM phenylphosphate, 0.1% Nonidet P-40 and protease inhibitor cocktail] and sonicated. After centrifugation (14000 rpm for 15 minutes at 4° C.), the protein concentration was determined in the supernatants by the Bradford protein assay (Bio-Rad).
# (§7) Whole cell extracts were prepared in buffer containing 100 mM Tris/HCl (pH, 6.8), 1 mM EDTA, 2% SDS and protease inhibitor cocktail. Following heat denaturation for 5 minutes, proteins were separated on 10% or 7% NuPAGE pre-cast Bis-Tris or Tris-Acetate polyacrylamide mini gels (Invitrogen) with MOPS SDS (all but cytochrome C, RNA polymerase II and phospho-Ser2—RNA polymerase II Western blots), MES SDS (cytochrome C), or Tris-Acetate SDS (RNA polymerase II and phospho-Ser2—RNA polymerase II) running buffer depending on protein size. Proteins were transferred to 0.45 μm nitrocellulose filters (Schleicher and Schuell). These were blocked with 5% low fat milk in Tris-Buffered Saline—Tween-20, incubated for 1 h with antibodies (anti-actin: 1:2000) or overnight at 4° C. (cytochome C: 1:500), Rb (1:500), phosphor-Rb (1:500), phospho-Thr320-PP1α (1:1000), RNA polymerase II (1:500), phosphor-Ser2-RNA polymerase II (1:500), Mcl-1 (1:500), caspase-9 (1:1000) and analyzed by Enhanced Chemiluminescence (ECL, Amersham).
# [4] = system: RNA polymerase II Ser2 phosphorylation; assay: Western blot, RNA polymerase II Ser2 phosphorylation in SH-SY5Y; format: cell-based, human; settings: for total RNA pol II: FIG. 10
# Method: (§8) SH-SY5Y human neuroblastoma cells were grown in DMEM medium (Invitrogen, Cergy Pontoise, France). The HEK 293 human embryonic kidney cell line was grown in MEM medium from Invitrogen. Human foreskin primary fibroblasts (kindly provided by Dr. Gilles Ponzio) were grown in DMEM supplemented with 2 mM L-glutamine and 20 mM HEPES. All the media were supplemented with antibiotics (penicillin-streptomycin) from Lonza and 10% volume of FCS from Invitrogen. Cells were cultured at 37° C. with 5% CO2. Drug treatments were performed on exponentially growing cultures at the indicated time and concentrations. Control experiments were carried out using appropriate dilutions of DMSO. MDCK cell-lines were used to test compounds PKD.
# as §6, §7
# LS 174T (Oncodesign) = assay: Cell survival, LS 174T (Oncodesign); format: cell-based; settings: Homo sapiens, LS174T; Table 6
# HCT116 (Oncodesign) = assay: Cell survival, HCT116 (Oncodesign); format: cell-based; settings: Homo sapiens, HCT-116; Table 6
# [5] = system: protein phosphatase 1-α Thr320 phosphorylation; assay: Western blot, protein phosphatase 1-α phosphorylation on Thr320 in SH-SY5Y; format: cell-based, human; settings: FIG. 11, compared with (R)-Roscovitine
# Method: as §8, §6
# (§9) Whole cell extracts were prepared in buffer containing 100 mM Tris/HCl (pH, 6.8), 1 mM EDTA, 2% SDS and protease inhibitor cocktail. […]
# Mcl-1 = assay: Western blot, survival factor Mcl-1 in SH-SY5Y; format: cell-based, human; settings: FIG. 12, compared with (R)-Roscovitine
# Method: as §8, §6, §9
# p53 total protein = assay: Western blot, p53 total protein in SH-SY5Y; format: cell-based, human; settings: FIG. 13, compared with (R)-Roscovitine
# Method: as §8, §6, §9
# p27 total protein = assay: Western blot, p27 total protein in SH-SY5Y; format: cell-based, human; settings: FIG. 14, compared with (R)-Roscovitine
# Method: as §8, §6, §9
# PARP cleavage = assay: Western blot, PARP cleavage in SH-SY5Y; format: cell-based, human; settings: FIG. 15, compared with (R)-Roscovitine
# Method: as §8, §6, §9
# cell lines = assay: Anti-proliferative activities on cell lines, summary; format: cell-based; settings: in words; listed as formula Ib
# [6] = Table 5, read-out: CDK1/cyclin B
# [7] = Homo sapiens, Lymphocyte, LLC B-cells, read-out: Cell death induction
# [8] = Homo sapiens, Lymphocyte, Table 6, read-out: Chronic Lymphocytic Leukemia cell survival
# T2 sequence (Q00535 whole entry): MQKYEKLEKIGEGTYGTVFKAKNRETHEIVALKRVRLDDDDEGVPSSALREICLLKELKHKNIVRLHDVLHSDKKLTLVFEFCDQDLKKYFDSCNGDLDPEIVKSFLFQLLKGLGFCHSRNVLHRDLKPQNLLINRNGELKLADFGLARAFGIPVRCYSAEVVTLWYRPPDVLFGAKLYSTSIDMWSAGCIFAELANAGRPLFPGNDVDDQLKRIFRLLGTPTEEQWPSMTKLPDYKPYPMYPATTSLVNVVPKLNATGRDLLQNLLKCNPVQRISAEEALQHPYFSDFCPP
# T2 sequence (Q15078 99-307 partner limits assumed): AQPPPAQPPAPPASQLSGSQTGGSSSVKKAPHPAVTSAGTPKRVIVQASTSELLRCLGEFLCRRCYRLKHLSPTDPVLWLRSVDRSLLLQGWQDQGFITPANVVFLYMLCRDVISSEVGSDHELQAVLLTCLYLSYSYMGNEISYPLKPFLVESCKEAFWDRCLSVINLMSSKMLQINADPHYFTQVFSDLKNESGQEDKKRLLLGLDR
# T3 sequence (P50750 whole entry): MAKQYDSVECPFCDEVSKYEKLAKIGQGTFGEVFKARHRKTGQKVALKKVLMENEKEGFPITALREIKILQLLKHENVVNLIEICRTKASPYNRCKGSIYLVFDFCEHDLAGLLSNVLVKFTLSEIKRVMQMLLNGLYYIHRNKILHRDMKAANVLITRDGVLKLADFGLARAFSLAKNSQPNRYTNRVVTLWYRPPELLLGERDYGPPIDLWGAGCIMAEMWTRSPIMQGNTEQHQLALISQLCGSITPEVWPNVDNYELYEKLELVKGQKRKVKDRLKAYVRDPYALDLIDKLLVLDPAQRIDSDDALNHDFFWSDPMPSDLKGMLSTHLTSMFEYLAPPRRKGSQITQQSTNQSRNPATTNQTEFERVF
# T3 sequence (O60563 whole entry partner): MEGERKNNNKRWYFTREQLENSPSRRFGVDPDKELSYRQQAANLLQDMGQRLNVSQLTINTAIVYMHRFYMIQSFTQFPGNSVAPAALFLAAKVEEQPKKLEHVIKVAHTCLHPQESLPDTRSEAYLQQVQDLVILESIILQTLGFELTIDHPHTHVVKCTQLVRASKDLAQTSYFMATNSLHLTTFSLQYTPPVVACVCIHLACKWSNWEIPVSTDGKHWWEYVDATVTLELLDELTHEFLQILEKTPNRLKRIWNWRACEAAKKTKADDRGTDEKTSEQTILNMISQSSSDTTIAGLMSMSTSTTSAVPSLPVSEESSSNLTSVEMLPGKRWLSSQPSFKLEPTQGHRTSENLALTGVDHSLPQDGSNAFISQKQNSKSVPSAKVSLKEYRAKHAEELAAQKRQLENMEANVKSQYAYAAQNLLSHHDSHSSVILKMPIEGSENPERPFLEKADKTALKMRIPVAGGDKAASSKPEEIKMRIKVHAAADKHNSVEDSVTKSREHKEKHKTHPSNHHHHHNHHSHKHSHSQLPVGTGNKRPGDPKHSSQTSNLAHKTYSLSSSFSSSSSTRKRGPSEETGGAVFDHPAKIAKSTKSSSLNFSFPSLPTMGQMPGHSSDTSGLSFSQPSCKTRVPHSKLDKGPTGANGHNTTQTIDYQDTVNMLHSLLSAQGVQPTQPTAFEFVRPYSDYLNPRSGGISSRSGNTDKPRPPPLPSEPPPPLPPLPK
# Erk2, sequence (P28482 whole entry, species assumed): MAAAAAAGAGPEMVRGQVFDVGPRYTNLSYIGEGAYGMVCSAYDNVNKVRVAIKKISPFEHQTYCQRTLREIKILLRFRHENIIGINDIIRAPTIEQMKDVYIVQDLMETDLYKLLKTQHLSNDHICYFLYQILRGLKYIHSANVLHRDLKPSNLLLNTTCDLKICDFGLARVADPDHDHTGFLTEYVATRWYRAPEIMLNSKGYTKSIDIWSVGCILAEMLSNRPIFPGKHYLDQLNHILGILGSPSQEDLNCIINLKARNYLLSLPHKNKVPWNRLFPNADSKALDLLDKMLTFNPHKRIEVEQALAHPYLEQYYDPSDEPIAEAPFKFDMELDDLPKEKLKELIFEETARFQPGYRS
# CDK7/cyclin H, sequence (P50613 whole entry, species assumed): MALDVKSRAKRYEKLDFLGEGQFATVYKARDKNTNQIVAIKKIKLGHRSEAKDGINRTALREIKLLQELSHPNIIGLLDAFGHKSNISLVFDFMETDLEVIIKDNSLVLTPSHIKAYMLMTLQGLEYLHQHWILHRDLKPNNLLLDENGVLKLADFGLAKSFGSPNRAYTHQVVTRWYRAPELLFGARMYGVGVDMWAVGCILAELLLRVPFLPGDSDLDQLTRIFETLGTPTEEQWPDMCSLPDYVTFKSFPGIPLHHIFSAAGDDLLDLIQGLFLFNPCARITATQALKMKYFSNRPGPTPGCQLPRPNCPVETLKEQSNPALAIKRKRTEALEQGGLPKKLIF
# CDK7/cyclin H, sequence (P51946 whole entry partner, species assumed): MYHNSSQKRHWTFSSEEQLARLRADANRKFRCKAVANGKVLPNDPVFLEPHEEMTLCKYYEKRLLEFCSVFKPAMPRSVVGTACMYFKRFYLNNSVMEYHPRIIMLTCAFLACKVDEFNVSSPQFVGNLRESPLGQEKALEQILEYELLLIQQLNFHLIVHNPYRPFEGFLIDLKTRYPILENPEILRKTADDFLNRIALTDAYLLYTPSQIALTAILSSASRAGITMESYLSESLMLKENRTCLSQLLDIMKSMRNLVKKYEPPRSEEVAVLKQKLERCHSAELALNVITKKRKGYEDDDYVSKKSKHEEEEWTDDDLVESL
pIC50 (CDK1/cyclin B; [6]),pIC50 (CDK2/cyclin A),pIC50 (CDK2/cyclin E),"pIC50 (CDK5/p25; Table 5, read-out: CDK5/p25)",pIC50 (CDK9/cyclin T),pIC50 (CK1δ/ε; Table 5),pIC50 (DYRK1A),pIC50 (Erk2),"pIC50 (GSK-3α/β; Table 5, read-out: GSK-3α/β)",SMILES,"pIC50 ([1]; Table 6, MTS assay)","pIC50 ([2]; HEK293, Table 6, MTS assay)",pIC50 (LS 174T),pIC50 (HCT116 (Spheroids)),pIC50 (B2-CLL lymphocytes; [7]),pIC50 (B2-CLL lymphocytes; [8]),total Rb [3],total RNA pol II [4],also measured
6.37,6.52,6.74,6.40,6.32,4.96,5.55,5.15,< 4.00,CC[C@H](CO)Nc1cc(NCc2ccccc2)c2ncn(C(C)C)c2n1 [(R)-perharidine A],4.84,4.56,4.67,5.00,5.15,5.15,essentially constant,essentially constant,"pIC50 (CDK1/cyclin B; Table 4, read-out: CDK1): 6.46; pIC50 (CDK5/p25; Table 4, read-out: CDK5): 6.70; pIC50 (CDK7/cyclin H): 6.05; pIC50 (CK1δ/ε; Table 4): 5.40; pIC50 (GSK-3α/β; Table 4, read-out: GSK3): < 4.52; pIC50 ([1]; Table 4, MTS assay): 4.79; pIC50 ([2]; HEK293, Table 4, MTS assay): 4.45"
6.14,6.38,6.51,6.30,5.89,5.32,4.66,5.05,< 4.52,"CC[C@@H](CO)Nc1cc(NCc2ccccc2)c2ncn(C(C)C)c2n1 [(S)-perharidine B, (S)-7-Benzylamino-5-[(2-butyl-1-ol)amino]-3-iso-propylimidazo[4,5-b]pyridine]",4.55,4.35,4.43,–,4.82,4.82,essentially constant,essentially constant,anti-proliferative activities compared with (R)-Roscovitine (cell lines): somewhat less efficient

SMILES,pIC50 (CDK1/cyclin B; [6]),pIC50 (CDK2/cyclin A),pIC50 (CDK2/cyclin E),"pIC50 (CDK5/p25; Table 5, read-out: CDK5/p25)",pIC50 (CDK9/cyclin T),pIC50 (CK1δ/ε; Table 5),pIC50 (DYRK1A),pIC50 (Erk2),"pIC50 (GSK-3α/β; Table 5, read-out: GSK-3α/β)","pIC50 ([1]; Table 6, MTS assay)","pIC50 ([2]; HEK293, Table 6, MTS assay)",pIC50 (LS 174T),pIC50 (HCT116 (Spheroids)),pIC50 (B2-CLL lymphocytes; [7]),pIC50 (B2-CLL lymphocytes; [8]),total Rb [3],total RNA pol II [4],also measured
CC[C@H](CO)Nc1cc(NCc2ccc(-c3ccccn3)cc2)c2ncn(C(C)C)c2n1 [(R)-perharidine C],6.34,6.44,6.60,6.22,6.28,5.96,4.96,4.66,4.96,5.84,–,–,6.46,6.51,6.51,essentially constant,essentially constant,"pIC50 (LS 174T (Oncodesign)): 6.54; pIC50 (HCT116 (Oncodesign)): 6.22; pIC50 (B2-CLL lymphocytes; LLC B-cells, read-out: Cell death induction): 6.55; inhibition of CDK2/4 in cells (retinoblastoma protein phosphorylation) ([3]; compared with (R)-Roscovitine): at lower concentrations than (R)-Roscovitine; inhibition of CDK9 in cells (RNA polymerase II Ser2 phosphorylation) ([4]; FIG. 9, compared with (R)-Roscovitine): at lower concentration than (R)-Roscovitine; inhibition of CDK1/cyclin B in cells (protein phosphatase 1-α Thr320 phosphorylation) [5]: at lower concentration than (R)-Roscovitine; down-regulation of survival factor Mcl-1 (Mcl-1): at lower concentration than (R)-Roscovitine; p53 total protein expression (p53 total protein): at lower concentration than (R)-Roscovitine; p27 total protein down-regulation (p27 total protein): at lower concentration than (R)-Roscovitine; PARP cleavage (PARP cleavage): at lower concentration than (R)-Roscovitine"
